{"source": "ChEMBL document CHEMBL3526112", "about": "“Brain uptake of the drug of abuse γ-hydroxybutyric acid in rats” (Drug Metab Dispos, 2012)", "key": {"[1]": {"assay": "Drug uptake in human hCMEC/D3 cells at 58 nM at pH 7.4 after 15 to 30 seconds by liquid scintillation counting", "format": "ADME, cell-based", "conditions": "hcmec/d3, pH 7.4, 0.058 µM; call rule not given here"}, "Plasma [2]": {"system": "Plasma", "assay": "Cmax in Sprague-Dawley rat plasma at 400 mg/kg, iv", "format": "ADME, organism-based", "parameters": "dose 400 mg/kg, route intravenous", "conditions": "in vivo"}, "Plasma [3]": {"system": "Plasma", "assay": "Cmax in Sprague-Dawley rat plasma at 400 mg/kg, iv after 30 to 180 mins", "format": "ADME, organism-based", "parameters": "dose 400 mg/kg, route intravenous", "conditions": "in vivo"}, "Rattus norvegicus [4]": {"system": "Rattus norvegicus", "assay": "Increase of sleep time in Sprague-Dawley rat at 800 mg/kg, iv", "format": "functional"}, "[5]": {"assay": "Cmax in Sprague-Dawley rat extracellular fluid of brain at 800 mg/kg, iv", "format": "ADME, organism-based", "parameters": "dose 800 mg/kg, route intravenous", "conditions": "in vivo"}, "[6]": {"assay": "Cmax in Sprague-Dawley rat extracellular fluid of brain at 400 mg/kg, iv", "format": "ADME, organism-based", "parameters": "dose 400 mg/kg, route intravenous", "conditions": "in vivo"}, "Plasma [7]": {"system": "Plasma", "assay": "AUC in Sprague-Dawley rat plasma at 600 mg/kg, iv", "format": "ADME, organism-based", "parameters": "dose 600 mg/kg, route intravenous", "conditions": "in vivo"}, "[8]": {"assay": "Tmax in Sprague-Dawley rat plasma at 600 mg/kg, iv", "format": "ADME, organism-based", "parameters": "dose 600 mg/kg, route intravenous"}, "[9]": {"assay": "Drug uptake in human hCMEC/D3 cells at 10 mM at pH 6.5 up to 10 mins by Michaelis-Menten analysis relative to at pH 7.4", "format": "ADME, cell-based", "conditions": "hcmec/d3, pH 6.5, 10 min, 10000 µM"}, "[10]": {"assay": "Tmax in Sprague-Dawley rat plasma at 400 mg/kg, iv", "format": "ADME, organism-based", "parameters": "dose 400 mg/kg, route intravenous"}, "Rattus norvegicus [11]": {"system": "Rattus norvegicus", "assay": "Increase of sleep time in Sprague-Dawley rat at 600 mg/kg, iv", "format": "functional"}, "[12]": {"assay": "Drug uptake in rat RBE4 cells at 58 nM at pH 7.4 after 15 to 30 seconds by liquid scintillation counting", "format": "ADME, cell-based", "conditions": "rbe4, pH 7.4, 0.058 µM"}, "Plasma [13]": {"system": "Plasma", "assay": "Cmax in Sprague-Dawley rat plasma at 600 mg/kg, iv after 30 to 180 mins", "format": "ADME, organism-based", "parameters": "dose 600 mg/kg, route intravenous", "conditions": "in vivo"}, "Plasma [14]": {"system": "Plasma", "assay": "AUC in Sprague-Dawley rat plasma at 400 mg/kg, iv", "format": "ADME, organism-based", "parameters": "dose 400 mg/kg, route intravenous", "conditions": "in vivo"}, "[15]": {"assay": "Tmax in Sprague-Dawley rat extracellular fluid of brain at 600 mg/kg, iv", "format": "ADME, organism-based", "parameters": "dose 600 mg/kg, route intravenous"}, "Plasma [16]": {"system": "Plasma", "assay": "AUC in Sprague-Dawley rat plasma at 800 mg/kg, iv", "format": "ADME, organism-based", "parameters": "dose 800 mg/kg, route intravenous", "conditions": "in vivo"}, "Rattus norvegicus [17]": {"system": "Rattus norvegicus", "assay": "Increase of sleep time in Sprague-Dawley rat at 400 mg/kg, iv", "format": "functional"}, "Plasma [18]": {"system": "Plasma", "assay": "Cmax in Sprague-Dawley rat plasma at 800 mg/kg, iv after 30 to 180 mins", "format": "ADME, organism-based", "parameters": "dose 800 mg/kg, route intravenous", "conditions": "in vivo"}, "[19]": {"assay": "Tmax in Sprague-Dawley rat plasma at 800 mg/kg, iv", "format": "ADME, organism-based", "parameters": "dose 800 mg/kg, route intravenous"}, "[20]": {"assay": "Ratio of extracellular fluid of brain AUC to plasma AUC in Sprague-Dawley rat at 800 mg/kg, iv", "format": "ADME, organism-based", "parameters": "dose 800 mg/kg, route intravenous", "conditions": "read-out: Ratio AUC"}, "[21]": {"assay": "Dissociation constant, pKa of the compound", "format": "physicochemical"}, "Brain [22]": {"system": "Brain", "assay": "AUC in Sprague-Dawley rat extracellular fluid of brain at 600 mg/kg, iv", "format": "ADME, organism-based", "parameters": "dose 600 mg/kg, route intravenous", "conditions": "in vivo"}, "[23]": {"assay": "Ratio of extracellular fluid of brain AUC to plasma AUC in Sprague-Dawley rat at 400 mg/kg, iv", "format": "ADME, organism-based", "parameters": "dose 400 mg/kg, route intravenous", "conditions": "read-out: Ratio AUC"}, "[24]": {"assay": "Renal clearance in Sprague-Dawley rat at 800 mg/kg, iv", "format": "ADME, organism-based, Kidney", "parameters": "dose 800 mg/kg, route intravenous", "conditions": "in vivo"}, "[25]": {"assay": "Drug uptake in rat RBE4 cells at pH 7.4 up to 10 mins by Michaelis-Menten analysis", "format": "ADME, cell-based"}, "Brain [26]": {"system": "Brain", "assay": "AUC in Sprague-Dawley rat extracellular fluid of brain at 800 mg/kg, iv", "format": "ADME, organism-based", "parameters": "dose 800 mg/kg, route intravenous", "conditions": "in vivo"}, "[27]": {"assay": "Tmax in Sprague-Dawley rat extracellular fluid of brain at 400 mg/kg, iv", "format": "ADME, organism-based", "parameters": "dose 400 mg/kg, route intravenous"}, "Brain [28]": {"system": "Brain", "assay": "AUC in Sprague-Dawley rat extracellular fluid of brain at 400 mg/kg, iv", "format": "ADME, organism-based", "parameters": "dose 400 mg/kg, route intravenous", "conditions": "in vivo"}, "[29]": {"assay": "Renal clearance in Sprague-Dawley rat at 600 mg/kg, iv", "format": "ADME, organism-based, Kidney", "parameters": "dose 600 mg/kg, route intravenous", "conditions": "in vivo"}, "[30]": {"assay": "Renal clearance in Sprague-Dawley rat at 400 mg/kg, iv", "format": "ADME, organism-based, Kidney", "parameters": "dose 400 mg/kg, route intravenous", "conditions": "in vivo"}, "[31]": {"assay": "Cmax in Sprague-Dawley rat extracellular fluid of brain at 600 mg/kg, iv", "format": "ADME, organism-based", "parameters": "dose 600 mg/kg, route intravenous", "conditions": "in vivo"}, "[32]": {"assay": "Tmax in Sprague-Dawley rat extracellular fluid of brain at 800 mg/kg, iv", "format": "ADME, organism-based", "parameters": "dose 800 mg/kg, route intravenous"}, "[33]": {"assay": "Drug uptake in rat RBE4 cells at 10 mM at pH 6.5 up to 10 mins by Michaelis-Menten analysis relative to at pH 7.4", "format": "ADME, cell-based", "conditions": "rbe4, pH 6.5, 10 min, 10000 µM"}, "[34]": {"assay": "Ratio of extracellular fluid of brain AUC to plasma AUC in Sprague-Dawley rat at 600 mg/kg, iv", "format": "ADME, organism-based", "parameters": "dose 600 mg/kg, route intravenous", "conditions": "read-out: Ratio AUC"}, "[35]": {"assay": "Drug uptake in human hCMEC/D3 cells at pH 7.4 up to 10 mins by Michaelis-Menten analysis", "format": "ADME, cell-based"}, "[36]": {"assay": "Drug recovery in Sprague-Dawley rat brain frontal cortex at 400 to 800 mg/kg, iv by microdialysis", "format": "ADME, organism-based", "parameters": "dose 400-800 mg/kg, route intravenous", "conditions": "in vivo"}, "Rattus norvegicus [37]": {"system": "Rattus norvegicus", "assay": "Increase of sleep time in iv dosed Sprague-Dawley rat", "format": "functional, organism-based"}}}
{"smiles": "O=C([O-])CCCO.[Na+]", "note": "[SODIUM OXYBATE]", "values": [{"measurement": "Drug uptake", "setting": "[1]", "result": "Active"}, {"measurement": "Cmax", "setting": "Plasma [2]", "result": 8400, "unit": "µM"}, {"measurement": "Cmax", "setting": "Plasma [3]", "result": 600, "unit": "µM"}, {"measurement": "Time", "setting": "Rattus norvegicus [4]", "result": 171, "unit": "min"}, {"measurement": "Cmax", "setting": "[5]", "result": 660, "unit": "µM"}, {"measurement": "Cmax", "setting": "[6]", "result": 390, "unit": "µM"}, {"measurement": "AUC", "setting": "Plasma [7]", "result": 124, "unit": "mg·min/mL"}, {"measurement": "Tmax", "setting": "[8]", "result": 5, "unit": "min"}, {"measurement": "Drug uptake", "setting": "[9]", "result": 126, "unit": "%"}, {"measurement": "Tmax", "setting": "[10]", "result": 5, "unit": "min"}, {"measurement": "Time", "setting": "Rattus norvegicus [11]", "result": 138, "unit": "min"}, {"measurement": "Drug uptake", "setting": "[12]", "result": "Active"}, {"measurement": "Cmax", "setting": "Plasma [13]", "result": 2400, "unit": "µM"}, {"measurement": "AUC", "setting": "Plasma [14]", "result": 66, "unit": "mg·min/mL"}, {"measurement": "Tmax", "setting": "[15]", "result": 50, "unit": "min"}, {"measurement": "AUC", "setting": "Plasma [16]", "result": 145, "unit": "mg·min/mL"}, {"measurement": "Time", "setting": "Rattus norvegicus [17]", "result": 90.4, "unit": "min"}, {"measurement": "Cmax", "setting": "Plasma [18]", "result": 3400, "unit": "µM"}, {"measurement": "Tmax", "setting": "[19]", "result": 5, "unit": "min"}, {"measurement": "Kp", "setting": "[20]", "result": 0.07}, {"measurement": "pKa", "setting": "[21]", "result": 4.72}, {"measurement": "AUC", "setting": "Brain [22]", "result": 8.7, "unit": "mg·min/mL"}, {"measurement": "Kp", "setting": "[23]", "result": 0.079}, {"measurement": "CL renal", "setting": "[24]", "result": 0.131, "unit": "L/h/kg"}, {"measurement": "Km at 10 min", "setting": "[25]; RBE4 cells, pH 7.4", "result": 23.3, "unit": "mM"}, {"measurement": "Vmax", "setting": "[25]; rbe4, pH 7.4, 10 min", "result": 258, "unit": "pmol/mg/min"}, {"measurement": "AUC", "setting": "Brain [26]", "result": 11.2, "unit": "mg·min/mL"}, {"measurement": "Tmax", "setting": "[27]", "result": 50, "unit": "min"}, {"measurement": "AUC", "setting": "Brain [28]", "result": 4.9, "unit": "mg·min/mL"}, {"measurement": "CL renal", "setting": "[29]", "result": 0.0846, "unit": "L/h/kg"}, {"measurement": "CL renal", "setting": "[30]", "result": 0.093, "unit": "L/h/kg"}, {"measurement": "Cmax", "setting": "[31]", "result": 550, "unit": "µM"}, {"measurement": "Tmax", "setting": "[32]", "result": 50, "unit": "min"}, {"measurement": "Drug uptake", "setting": "[33]", "result": 126, "unit": "%"}, {"measurement": "Kp", "setting": "[34]", "result": 0.07}, {"measurement": "Km at 10 min", "setting": "[35]; hCMEC/D3 cells, pH 7.4", "result": 18.1, "unit": "mM"}, {"measurement": "Vmax", "setting": "[35]; hcmec/d3, pH 7.4, 10 min", "result": 248, "unit": "pmol/mg/min"}, {"measurement": "Drug recovery", "setting": "[36]", "result": 32.5, "unit": "%"}, {"measurement": "Activity", "setting": "Rattus norvegicus [37]", "result": "Dose-dependent effect"}]}
